Laboratory results as given in US20230391786A1, “cGAS INHIBITORS” (Eli Lilly and Company, priority 2022, published 2023).
Read-outs that look alike come from different tables or passages of the source.

Tests used:
recombinant human cGAS = recombinant human cGAS (Homo sapiens (Human), UniProt Q8N884); assay: In vitro inhibition assay of cGAS activity (cGAMP production, RapidFire mass spectrometry); format: biochemical; conditions: 10 nM recombinant human cGAS, 60 nM 75-bp dsDNA, ATP, GTP, room temperature 3 hours, read-out: IC50 (μM), In vitro inhibition assay for Compounds 95-348
Summary of the method: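 Product cGAMP was quantified by RapidFire MS against a difluoro-cGAMP internal standard after a formic acid quench. The reaction contained 10 nM recombinant full-length human cGAS, 75-bp dsDNA (60 nM), ATP and GTP (50 μM) and ran for 3 h at room temperature. IC50 values came from 4-parameter nonlinear regression.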

[1] = test system: cGAS activity in THP1 cells (IFNb as marker); assay: Cellular assay to measure cGAS activity (IFNb production in PMA-differentiated THP1 cells stimulated by RDG-Adenovirus-GFP); format: cell-based, human; conditions: PMA differentiated, RDG-Adenovirus-GFP 1000 MOI, IFNb AlphaLISA, overnight incubation, read-out: IC50 (μM), Cellular assay for Compounds 95-348
Procedure: Cellular assay to measure cGAS activity: Use THP1 cell line from ATCC to determine inhibition of cGAS activity by test compounds in human cells. Plate cells on 96-well plates at 0.2×10^6/well and differentiate with phorbol myristate acetate (PMA) at 37° C./5% CO2. After 24 hours, replace PMA containing media with media lacking PMA and further incubate overnight. Stimulate cells were then by RDG-Adenovirus-GFP (Vector Biolabs #1768) at 1000 MOI for 4 hours prior to the addition of test compounds. After overnight incubation, transfer 10 μL of the media from each well to a new plate for IFNb analysis as a marker for cGAS activity. Measure quantification of IFNb with an IFNb AlphaLISA Detection kit (Perkin Elmer AL3133F) by mixing the acceptor beads with the cell supernatant followed by the addition of the biotinylated antibody and donor beads. Measure the relative fluorescence signal produced from the interaction of the donor and acceptor beads by a PHERAStar AlphaLISA protocol and evaluate the inhibitory effect of a compound by plotting specific inhibition of IFNb production against log concentration of the test compound. Calculate IC50 values using a 4-parameter non-linear logistic equation (y=(S0+((SInf−S0)/(1+((qAC50/x)^nHill))))).

[2] = Homo sapiens, THP-1, THP1 cells

Chain of recombinant human cGAS (Q8N884 whole entry): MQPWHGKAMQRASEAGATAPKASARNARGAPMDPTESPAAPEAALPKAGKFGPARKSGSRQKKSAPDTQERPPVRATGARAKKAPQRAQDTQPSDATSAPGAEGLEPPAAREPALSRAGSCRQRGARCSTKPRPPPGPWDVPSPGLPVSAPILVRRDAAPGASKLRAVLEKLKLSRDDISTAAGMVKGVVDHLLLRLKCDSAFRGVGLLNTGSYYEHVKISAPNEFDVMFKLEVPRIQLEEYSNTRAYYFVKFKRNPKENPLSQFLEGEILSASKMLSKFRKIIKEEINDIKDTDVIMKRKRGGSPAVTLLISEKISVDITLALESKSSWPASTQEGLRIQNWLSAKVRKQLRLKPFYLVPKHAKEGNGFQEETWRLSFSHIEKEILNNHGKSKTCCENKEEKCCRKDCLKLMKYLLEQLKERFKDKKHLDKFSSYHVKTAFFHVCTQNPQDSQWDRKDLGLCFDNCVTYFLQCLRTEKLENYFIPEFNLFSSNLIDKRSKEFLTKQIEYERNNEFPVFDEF

Row | IC50 (recombinant human cGAS) [µM] | IC50 [1, 2] [µM] | IC50 ([1]; THP1 cells) [µM] | Structure (SMILES)
1 | 0.0468 | > 10 |  | O=C(Cn1ccnc1)N1CCn2c(c(-c3cn[nH]c3)c3ccc(Cl)c(Cl)c32)C1 [Example 111, 1-[6,7-Dichloro-10-(1H-pyrazol-4-yl)-3,4-dihydro-1H-pyrazino[1,2-a]indol-2-yl]-2-imidazol-1-yl-ethanone]
2 | 0.0543 | 1.34 |  | NC(=O)NCc1[nH]c2c(Cl)c(Cl)ccc2c1-c1cn[nH]c1 [Example 164, [6,7-Dichloro-3-(1H-pyrazol-4-yl)-1H-indol-2-yl]methylurea]
3 | 0.0405 | > 10 |  | O=C1CC(CC(=O)N2CCn3c(c(-c4cn[nH]c4)c4c(NC(=O)C(F)F)cc(Cl)c(Cl)c43)C2)CCN1 (centres unmarked) [Example 276, N-[6,7-Dichloro-2-[2-(2-oxo-4-piperidyl)acetyl]-10-(1H-pyrazol-4-yl)-3,4-dihydro-1H-pyrazino[1,2-a]indol-9-yl]-2,2-difluoro-acetamide]
4 | 0.0115 |  | 4.05 | O=C1NCC(C(=O)N2CCn3c(c(-c4cn[nH]c4)c4ccc(Cl)c(Cl)c43)C2)O1 (single isomer, unassigned) [Example 260, 5-[6,7-Dichloro-10-(1H-pyrazol-4-yl)-3,4-dihydro-1H-pyrazino[1,2-a]indole-2-carbonyl]oxazolidin-2-one]
5 | 0.0379 | > 10 |  | COCCOCC(=O)N1CCn2c(c(-c3cn[nH]c3)c3ccc(Cl)c(Cl)c32)C1 [Example 306, 1-(6,7-Dichloro-10-(1H-pyrazol-4-yl)-3,4-dihydropyrazino[1,2-a]indol-2(1H)-yl)-2-(2-methoxyethoxy)ethan-1-one]
6 | 0.0806 | 1.13 |  | CCOc1cc(Cl)c(Cl)c2c1c(-c1cn[nH]c1)c1n2CC[C@@H]1NC(C)=O [Example 233, (S)—N-(5,6-Dichloro-8-ethoxy-9-(1H-pyrazol-4-yl)-2,3-dihydro-1H-pyrrolo[1,2-a]indol-1-yl)acetamide]
7 | 0.0927 | > 10 |  | CC(=O)Nc1cc(Cl)c(Cl)c2[nH]c(CNC(=O)CO)c(-c3cn[nH]c3)c12 [Example 222, N-[[4-Acetamido-6,7-dichloro-3-(1H-pyrazol-4-yl)-1H-indol-2-yl]methyl]-2-hydroxy-acetamide]
8 | 0.015 | 1.74 |  | O=C(CO)NC1CCn2c1c(-c1cn[nH]c1)c1ccc(Cl)c(Cl)c12 (centres unmarked) [Example 237, N-(5,6-Dichloro-9-(1H-pyrazol-4-yl)-2,3-dihydro-1H-pyrrolo[1,2-a]indol-1-yl)-2-hydroxyacetamide]
9 | 0.0378 | > 10 |  | CN1CC(C(=O)N2CCn3c(c(-c4cn[nH]c4)c4ccc(Cl)c(Cl)c43)C2)CCC1=O (centres unmarked) [Example 305, 5-(6,7-Dichloro-10-(1H-pyrazol-4-yl)-1,2,3,4-tetrahydropyrazino[1,2-a]indole-2-carbonyl)-1-methylpiperidin-2-one]
10 | 0.033 | 0.726 |  | COCCN1CCn2c(c(-c3cn[nH]c3)c3c(NC(=O)C(F)F)cc(Cl)c(Cl)c32)C1=O [Example 252, N-[6,7-Dichloro-2-(2-methoxyethyl)-1-oxo-10-(1H-pyrazol-4-yl)-3,4-dihydropyrazino[1,2-a]indol-9-yl]-2,2-difluoro-acetamide]
11 | 0.019 | 2.05 |  | CCOc1cc(Cl)c(Cl)c2c1c(-c1cn[nH]c1)c1n2CC[C@H]1NC(C)=O [Example 235, (R)—N-(5,6-Dichloro-8-ethoxy-9-(1H-pyrazol-4-yl)-2,3-dihydro-1H-pyrrolo[1,2-a]indol-1-yl)acetamide]
12 | 0.0202 | 0.412 |  | O=C(Nc1cc(Cl)c(Cl)c2c1c(-c1cn[nH]c1)c1n2CCN(C(=O)CO)C1)C(F)F [Example 272, N-[6,7-Dichloro-2-(2-hydroxyacetyl)-10-(1H-pyrazol-4-yl)-3,4-dihydro-1H-pyrazino[1,2-a]indol-9-yl]-2,2-difluoro-acetamide]
13 | 0.0153 | 2.49 |  | COCCS(=O)(=O)NC1CCc2c(-c3cn[nH]c3)c3ccc(Cl)c(Cl)c3n2C1 (centres unmarked) [Example 117, N-[3,4-Dichloro-10-(1H-pyrazol-4-yl)-6,7,8,9-tetrahydropyrido[1,2-a]indol-7-yl]-2-methoxy-ethanesulfonamide]
14 | 0.0538 | 4.1 |  | NC(=O)Cn1cc(-n2cc(-c3cn[nH]c3)c3ccc(Cl)c(Cl)c32)nn1 [Example 213, 2-[4-[6,7-Dichloro-3-(1H-pyrazol-4-yl)indol-1-yl]triazol-1-yl]acetamide]
15 | 0.0102 | 0.516 |  | N#CCOc1cc(Cl)c(Cl)c2[nH]c(CO)c(-c3cn[nH]c3)c12 [Example 340, 2-((6,7-Dichloro-2-(hydroxymethyl)-3-(1H-pyrazol-4-yl)-1H-indol-4-yl)oxy)acetonitrile]
16 | 0.0931 | 2.83 |  | Cn1cc(-n2c(CO)c(-c3cn[nH]c3)c3ccc(Cl)c(Cl)c32)nn1 [Example 166, [6,7-Dichloro-1-(1-methyltriazol-4-yl)-3-(1H-pyrazol-4-yl)indol-2-yl]methanol]
17 | 0.00356 | 0.0689 |  | O=C(Nc1cc(Cl)c(Cl)c2[nH]cc(-c3cn[nH]c3)c12)C(F)F [Example 171, N-[6,7-Dichloro-3-(1H-pyrazol-4-yl)-1H-indol-4-yl]-2,2-difluoro-acetamide]
18 | 0.0137 | 0.88 |  | FC(F)CNc1cc(Cl)c(Cl)c2[nH]cc(-c3cn[nH]c3)c12 [Example 122, 6,7-Dichloro-N-(2,2-difluoroethyl)-3-(1H-pyrazol-4-yl)-1H-indol-4-amine]
19 | 0.0244 | 1.53 |  | CN1CCOC[C@@H]1CC(=O)N1CCn2c(c(-c3cn[nH]c3)c3c(OCC#N)cc(Cl)c(Cl)c32)C1 [Example 114, (S)-2-((6,7-Dichloro-2-(2-(4-methylmorpholin-3-yl)acetyl)-10-(1H-pyrazol-4-yl)-1,2,3,4-tetrahydropyrazino[1,2-a]indol-9-yl)oxy)acetonitrile]
20 | 0.0121 | 0.23 |  | O=C(Nc1cc(Cl)c(Cl)c2[nH]c(CCO)c(-c3cn[nH]c3)c12)C(F)F [Example 225, N-[6,7-Dichloro-2-(2-hydroxyethyl)-3-(1H-pyrazol-4-yl)-1H-indol-4-yl]-2,2-difluoro-acetamide]
21 | 0.0652 | 2.99 |  | OC/C=C/CNc1cc(Cl)c(Cl)c2[nH]cc(-c3cn[nH]c3)c12 [Example 121, (E)-4-((6,7-Dichloro-3-(1H-pyrazol-4-yl)-1H-indol-4-yl)amino)but-2-en-1-ol]
22 | 0.0445 | 1.58 |  | O=C(Nc1cc(Cl)c(Cl)c2c1c(-c1cn[nH]c1)c1n2CCN(C(=O)Cc2cnccn2)C1)C(F)F [Example 277, N-[6,7-Dichloro-2-(2-pyrazin-2-ylacetyl)-10-(1H-pyrazol-4-yl)-3,4-dihydro-1H-pyrazino[1,2-a]indol-9-yl]-2,2-difluoro-acetamide]
23 | 0.0306 | > 10 |  | NC(=O)COc1cc(Cl)c(Cl)c2c1c(-c1cn[nH]c1)c1n2CCN(C(=O)CO)C1 [Example 269, 2-[[6,7-Dichloro-2-(2-hydroxyacetyl)-10-(1H-pyrazol-4-yl)-3,4-dihydro-1H-pyrazino[1,2-a]indol-9-yl]oxy]acetamide]
24 | 0.0124 | 9.75 |  | N#CCOc1cc(Cl)c(Cl)c2c1c(-c1cn[nH]c1)c1n2CCN(C(=O)CN2CCOC2=O)C1 [Example 284, 2-((6,7-Dichloro-2-(2-(2-oxooxazolidin-3-yl)acetyl)-10-(1H-pyrazol-4-yl)-1,2,3,4-tetrahydropyrazino[1,2-a]indol-9-yl)oxy)acetonitrile]
25 | 0.0126 | 1.19 |  | N#CCOc1cc(Cl)c(Cl)c2c1c(-c1cn[nH]c1)c1n2CCN(C(=O)[C@@H]2COCCO2)C1 [Example 285, (S)-2-((6,7-Dichloro-2-(1,4-dioxane-2-carbonyl)-10-(1H-pyrazol-4-yl)-1,2,3,4-tetrahydropyrazino[1,2-a]indol-9-yl)oxy)acetonitrile]
26 | 0.0173 | 0.509 |  | CC(=O)N1CCn2c(c(-c3cn[nH]c3)c3c(NC(=O)C(F)F)cc(Cl)c(Cl)c32)C1 [Example 263, N-[2-Acetyl-6,7-dichloro-10-(1H-pyrazol-4-yl)-3,4-dihydro-1H-pyrazino[1,2-a]indol-9-yl]-2,2-difluoro-acetamide]
27 | 0.0235 | > 10 |  | O=C(CO)Nc1nnc(-c2[nH]c3c(Cl)c(Cl)ccc3c2-c2cn[nH]c2)o1 [Example 257, N-[5-[6,7-Dichloro-3-(1H-pyrazol-4-yl)-1H-indol-2-yl]-1,3,4-oxadiazol-2-yl]-2-hydroxy-acetamide]
28 | 0.00614 | 0.565 |  | CCOc1cc(Cl)c(Cl)c2c1c(-c1cn[nH]c1)c1n2CC[C@@H]1NC(=O)CO [Example 343, (S)—N-(5,6-Dichloro-8-ethoxy-9-(1H-pyrazol-4-yl)-2,3-dihydro-1H-pyrrolo[1,2-a]indol-1-yl)-2-hydroxyacetamide]
